Experiments:
FL-geph = assay: µSPOT peptide microarray binding assay with full-length geph
native geph = assay: µSPOT peptide microarray binding assay with native geph from mouse brain lysate
gephE = assay: µSPOT peptide microarray binding assay with recombinant gephE
[1] = µSPOT peptide microarray, GlyRβ full positional scan, intensity normalised to wild-type sequence DLRSNDFSIVGSLPR (=1)
[2] = µSPOT peptide microarray, GlyRβ full positional scan, native geph from mouse brain lysate, intensity normalised to wild-type sequence DLRSNDFSIVGSLPR (=1)
[3] = µSPOT peptide microarray, GlyRβ full positional scan, recombinant gephE, intensity normalised to wild-type sequence DLRSNDFSIVGSLPR (=1)
[4] = µSPOT full positional scan of GlyRβ 15-mer DLRSNDFSIVGSLPR, intensity normalised to wild-type sequence (= 1)
[5] = µSPOT full positional scan of GlyRβ 15-mer DLRSNDFSIVGSLPR, native geph, intensity normalised to wild-type sequence (= 1)

| Sequence | Fl-geph Binding Intensity [norm.] (FL-geph; [1]) | Native geph Binding Intensity [norm.] (native geph; [2]) | gephE Binding Intensity [norm.] (gephE; [3]) | Fl-geph Binding Intensity [norm.] (FL-geph; [4]) | Native geph Binding Intensity [norm.] (native geph; [5]) | gephE Binding Intensity [norm.] (gephE; [4]) |
| --- | --- | --- | --- | --- | --- | --- |
| DIRSNDFSIVGSLPR [GlyRβ_Full_Positional_Scan_023] | 1.12 | 1.16 | 0.95 |  |  |  |
| DLRSNEFSIVGSLPR [GlyRβ_Full_Positional_Scan_111] | 0.94 | 0.97 | 0.96 |  |  |  |
| DLRSTDFSIVGSLPR [GlyRβ_Full_Positional_Scan_096] | 0.78 | 0.73 | 1.06 |  |  |  |
| DTRSNDFSIVGSLPR [GlyRβ_Full_Positional_Scan_036] | 0.97 | 1.09 | 0.94 |  |  |  |
| DSRSNDFSIVGSLPR [GlyRβ_Full_Positional_Scan_035] | 0.97 | 0.97 | 0.97 |  |  |  |
| DLRCNDFSIVGSLPR [GlyRβ_Full_Positional_Scan_077] | 0.65 | 0.77 | 0.99 |  |  |  |
| DLRSNMFSIVGSLPR [GlyRβ_Full_Positional_Scan_118] | 0.84 | 0.62 | 0.85 |  |  |  |
| DLRSNNFSIVGSLPR [GlyRβ_Full_Positional_Scan_119] | 0.69 | 0.57 | 0.89 |  |  |  |
| DVRSNDFSIVGSLPR [GlyRβ_Full_Positional_Scan_026] | 1.05 | 0.98 | 1.03 |  |  |  |
| DGRSNDFSIVGSLPR [GlyRβ_Full_Positional_Scan_022] | 0.94 | 0.92 | 0.98 |  |  |  |
| DLGSNDFSIVGSLPR [GlyRβ_Full_Positional_Scan_042] | 1.02 | 1.26 | 0.93 |  |  |  |
| DLRRNDFSIVGSLPR [GlyRβ_Full_Positional_Scan_072] | 1.06 | 1.25 | 0.97 |  |  |  |
| DLCSNDFSIVGSLPR [GlyRβ_Full_Positional_Scan_057] | 1.14 | 1.41 | 0.88 |  |  |  |
| DLRSNGFSIVGSLPR [GlyRβ_Full_Positional_Scan_102] | 1.07 | 0.65 | 1 |  |  |  |
| DLRGNDFSIVGSLPR [GlyRβ_Full_Positional_Scan_062] | 0.88 | 1.16 | 0.99 |  |  |  |
| DWRSNDFSIVGSLPR [GlyRβ_Full_Positional_Scan_028] | 0.82 | 0.6 | 0.8 |  |  |  |

Continued, values first:

| Fl-geph Binding Intensity [norm.] (FL-geph; [1]) | Native geph Binding Intensity [norm.] (native geph; [2]) | gephE Binding Intensity [norm.] (gephE; [3]) | Fl-geph Binding Intensity [norm.] (FL-geph; [4]) | Native geph Binding Intensity [norm.] (native geph; [5]) | gephE Binding Intensity [norm.] (gephE; [4]) | Sequence |
| --- | --- | --- | --- | --- | --- | --- |
|  |  |  | 1.05 | 0.45 | 0.62 | DLRSNDFSIVGILPR [GlyRβ_Full_Positional_Scan_223] |
| 0.61 | 0.23 | 0.56 |  |  |  | DLRSNDFVIVGSLPR [GlyRβ_Full_Positional_Scan_146, GlyR β 414-428 variant S421V] |
|  |  |  | 1.05 | 1.11 | 1.05 | DLRSNDFSIVGSLPL [GlyRβ_Full_Positional_Scan_284] |
| 0.35 | 0.28 | 0.46 |  |  |  | DLRSNDFSIDGSLPR [GlyRβ_Full_Positional_Scan_190, GlyR β 414-428 variant V423D] |
|  |  |  | 0.84 | 0.76 | 0.89 | DLRSNDFSIVGSLPW [GlyRβ_Full_Positional_Scan_288] |
|  |  |  | 1.3 | 1.3 | 0.82 | DLRSNDFSIVGSLPS [GlyRβ_Full_Positional_Scan_295] |
|  |  |  | 0.45 | 0.29 | 0.43 | DLRSNDFSIVQSLPR [GlyRβ_Full_Positional_Scan_220, GlyR β 414-428 variant G424Q] |
| 0.66 | 0.46 | 0.57 |  |  |  | DLRSNDISIVGSLPR [GlyRβ_Full_Positional_Scan_123, GlyR β 414-428 variant F420I] |
| 0.79 | 0.35 | 0.55 |  |  |  | DLRSNDFAIVGSLPR [GlyRβ_Full_Positional_Scan_141, GlyR β 414-428 variant S421A] |
|  |  |  | 0.98 | 1.05 | 0.94 | DLRSNDFSIVGTLPR [GlyRβ_Full_Positional_Scan_236] |
|  |  |  | 0.97 | 0.8 | 0.76 | DLRSNDFSIVGSQPR [GlyRβ_Full_Positional_Scan_260] |
| 0.95 | 0.48 | 0.8 |  |  |  | DLRSNDFHIVGSLPR [GlyRβ_Full_Positional_Scan_153, GlyR β 414-428 variant S421H] |
|  |  |  | 1.05 | 1.01 | 0.98 | DLRSNDFSIVGSLPI [GlyRβ_Full_Positional_Scan_283] |
| 0.84 | 0.48 | 0.69 |  |  |  | DLRSNDFSYVGSLPR [GlyRβ_Full_Positional_Scan_169, GlyR β 414-428 variant I422Y] |
|  |  |  | 0.33 | 0.17 | 0.36 | DLRSNDFSIVMSLPR [GlyRβ_Full_Positional_Scan_218, GlyR β 414-428 variant G424M] |
| 0.97 | 0.48 | 0.64 |  |  |  | DLRSNDFSPVGSLPR [GlyRβ_Full_Positional_Scan_165, GlyR β 414-428 variant I422P] |
| 0.95 | 0.31 | 0.53 |  |  |  | DLRSNDFSTVGSLPR [GlyRβ_Full_Positional_Scan_176, GlyR β 414-428 variant I422T] |

Source: article PMC7753147, “High-throughput determination of protein affinities using unmodified peptide libraries in nanomolar scale” (iScience, 2020)
